In experiment [1] the test system is green foxtail (Setaria viridis) (SETVI). Put plainly: post-emergent herbicidal test, green foxtail. Particulars: for pest or weed control at 4000 g/ha / pest or weed control at 1000 g/ha: Setaria viridis, post-emergence, read-out: SETVI percent control. It counts as in vivo. In a few lines: (§1)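 Seedlings grown in sandy loam in a greenhouse (29/21 °C day/night, 14 h light) were sprayed post-emergence at 1 or 4 kg/ha in water with 0.5% Tween 20; grasses at 3–4 leaf, broadleaves at 1–2 leaf. Percent control versus untreated flats (0–100%) was rated 17–21 days later.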

In experiment [2] the test system is barnyard grass (Enchinochloa crusgalli) (ECHCG). Put plainly: post-emergent herbicidal test, barnyard grass. It is filed as in vivo. To be noted: Echinochloa crus-galli, post-emergence, read-out: ECHCG percent control; for pest or weed control at 1000 g/ha: post-emergent, 1.0 kg/ha (*), 17-21 days after application. An outline of the steps: as §1
Experiment [3] concerns wild oat (Avena fatua) (AVEFA). The experiment is described as follows: post-emergent herbicidal test, wild oat. It counts as in vivo. Particulars: Avena fatua, post-emergence, read-out: AVEFA percent control; for pest or weed control at 1000 g/ha: post-emergent, 1.0 kg/ha (*), 17-21 days after application. An outline of the steps:
as §1

Experiment [4] concerns velvetleaf (Abutilon theophrasti) (ABUTH). Put plainly: post-emergent herbicidal test, velvetleaf. To be noted: for pest or weed control at 4000 g/ha / pest or weed control at 1000 g/ha: Abutilon theophrasti, post-emergence, read-out: ABUTH percent control. It counts as in vivo. An outline of the steps:
as §1

The test system of experiment [5] is farnesyl pyrophosphate synthase in daffodil chromoplasts. The experiment is described as follows: inhibition of farnesyl pyrophosphate synthase in daffodil chromoplasts (14C-isopentenyl pyrophosphate incorporation). It is filed as biochemical, Narcissus pseudonarcissus. Particulars: unit inferred, IC50 values in nM, read-out: IC50. In a few lines:
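Daffodil chromoplasts in pH 7.7 sucrose/MgCl2/HEPES buffer with cysteine, NaF and BSA, started with ~3 micromolar 14C-isopentenyl pyrophosphate, 30 min at 30° C. Butanol-extractable radioactivity counted by scintillation; % residual activity calculated against zero-time and end-point no-inhibitor controls.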

Experiment [6] deals with wild mustard (Brassica kaber), also known as Sinapis arvensis (SINAR). The experiment is described as follows: post-emergent herbicidal test, wild mustard. Particulars: for pest or weed control at 4000 g/ha / pest or weed control at 1000 g/ha: Brassica, post-emergence, read-out: SINAR percent control. It is filed as in vivo. An outline of the steps: as §1
Experiment [7] deals with yellow nutsedge (Cyperus esculentus) (CYPES). The experiment is described as follows: post-emergent herbicidal test, yellow nutsedge. It is filed as in vivo. To be noted: for pest or weed control at 4000 g/ha / pest or weed control at 1000 g/ha: Cyperus, post-emergence, read-out: CYPES percent control. An outline of the steps: as §1
Experiment [8] concerns morningglory (Ipomoea spp.) (IPOSS). The experiment is described as follows: post-emergent herbicidal test, morningglory. It counts as in vivo. Particulars: Ipomoea, post-emergence, read-out: IPOSS percent control; for pest or weed control at 1000 g/ha: post-emergent, 1.0 kg/ha (*), 17-21 days after application. An outline of the steps: as §1
Where [9] appears, read: post-emergent, 1.0 kg/ha (*), 17-21 days after application.

Read-outs that look alike come from different tables or passages of the source. A value given as a limit tells only on which side of the number the result lay.

Broadly, the IC50 is the midpoint of a concentration-inhibition curve.

As for `CNCC(O)(P(=O)(O)O)P(=O)(O)O` [Compound 23], the pest or weed control at 4000 g/ha in experiment [1], in experiment [2], in experiment [3], in experiment [4], in experiment [6] and in experiment [7] was 0% throughout. Moreover, in experiment [8], the pest or weed control at 4000 g/ha is 0%. Also, the IC50 was 500000 nM in experiment [5] (Table I) and greater than 500000 nM in experiment [5] (Table II).

Turning to `Cc1cn(CC(P(=O)(O)O)P(=O)(O)O)cn1` [Compound 58], the pest or weed control at 1000 g/ha in experiment [1] (setting [9]) was 100%; in experiment [2] it was 98%; in experiment [3], 100%; in experiment [4] (setting [9]), 98%; in experiment [6] (setting [9]), 100%; in experiment [7] (setting [9]), 10%. Further, the pest or weed control at 1000 g/ha in experiment [8] stood at 90%. For the same compound, the IC50 in experiment [5] (Table I) and in experiment [5] (Table II) was 107 nM each time.

For `C=CCN(CC)CC(P(=O)(O)O)P(=O)(O)O` [Compound 40], the pest or weed control at 1000 g/ha was determined as 80% in experiment [1] (setting [9]); 90% in experiment [2]; 85% in experiment [3]; 10% in experiment [4] (setting [9]); 95% in experiment [6] (setting [9]); 10% in experiment [7] (setting [9]). For the same compound, the pest or weed control at 1000 g/ha in experiment [8] worked out at 10%. In addition, the IC50 in experiment [5] (Table I) and in experiment [5] (Table II) was 88 nM in each case.

Regarding `CC1CC(C)CN(CC(P(=O)(O)O)P(=O)(O)O)C1` (stereo not drawn) [Compound 35], the pest or weed control at 1000 g/ha was 50% in experiment [1] (setting [9]); 15% in experiment [2]; 98% in experiment [3]; 0% in experiment [4] (setting [9]); 25% in experiment [6] (setting [9]); 0% in experiment [7] (setting [9]). In experiment [8], the pest or weed control at 1000 g/ha worked out at 30%. Also, the IC50 in experiment [5] (Table I) and in experiment [5] (Table II) was 520 nM throughout.

For `CC(NCC(P(=O)(O)O)P(=O)(O)O)c1ccccc1` (stereo not drawn) [Compound 26], the SETVI percent control in experiment [1] (setting [9]) turned out to be 60%. Moreover, the pest or weed control at 1000 g/ha in experiment [2] worked out at 80%; in experiment [3], 80%; in experiment [8], 10%. In experiment [4] (setting [9]), this compound registered an ABUTH percent control of 20%. Also, the IC50 in experiment [5] (Table I) and in experiment [5] (Table II) was 1430 nM throughout. Moreover, in experiment [6] (setting [9]), the SINAR percent control is given as 40%. The CYPES percent control in experiment [7] (setting [9]) turned out to be 5%.

On to `CC1CCCN1CC(P(=O)(O)O)P(=O)(O)O` (stereo not drawn) [Compound 43], for which the pest or weed control at 1000 g/ha in experiment [1] (setting [9]) amounted to 98%; in experiment [2], 98%; in experiment [3], 100%; in experiment [4] (setting [9]), 30%; in experiment [6] (setting [9]), 100%; in experiment [7] (setting [9]), 5%. Further, the pest or weed control at 1000 g/ha in experiment [8] is 60%. Besides, the IC50 in experiment [5] (Table I) and in experiment [5] (Table II) was 93 nM each time.

As for `CCN(CC)CC(P(=O)(O)O)P(=O)(O)O` [Compound 13], the pest or weed control at 1000 g/ha in experiment [1] (setting [9]) is 80%; in experiment [2], 40%; in experiment [3], 40%; in experiment [4] (setting [9]), 15%; in experiment [6] (setting [9]), 95%; in experiment [7] (setting [9]) it was 5%. Besides, the pest or weed control at 1000 g/ha in experiment [8] is 10%. Also, the IC50 in experiment [5] (Table I) and in experiment [5] (Table II) was 240 nM throughout.

For `C=CCCNCC(P(=O)(O)O)P(=O)(O)O` [Compound 16], the pest or weed control at 1000 g/ha in experiment [1] (setting [9]) was 90%; in experiment [2], 100%; in experiment [3], 80%; in experiment [4] (setting [9]), 10%; in experiment [6] (setting [9]), 100%; in experiment [7] (setting [9]) it was 20%. Besides, the pest or weed control at 1000 g/ha in experiment [8] stood at 10%. Moreover, the IC50 in experiment [5] (Table I) and in experiment [5] (Table II) was 316 nM throughout.

As for `CC1CCCN(CC(P(=O)(O)O)P(=O)(O)O)C1` (stereo not drawn) [Compound 21], the pest or weed control at 1000 g/ha in experiment [1] (setting [9]) stood at 50%; in experiment [2], 30%; in experiment [3], 50%; in experiment [4] (setting [9]), 0%; in experiment [6] (setting [9]) it was 30%; in experiment [7] (setting [9]), 5%. Besides, the pest or weed control at 1000 g/ha in experiment [8] turned out to be 10%. For the same compound, the half-maximal inhibitory concentration (IC50) in experiment [5] (Table I) and in experiment [5] (Table II) was 385 nM throughout.

On to `CC(C)NCC(P(=O)(O)O)P(=O)(O)O` [Compound 6], for which the pest or weed control at 4000 g/ha in experiment [1] amounted to 60%; in experiment [2] it was 60%; in experiment [3], 50%; in experiment [4] it was 15%; in experiment [6], 100%; in experiment [7] it was 25%. For the same compound, in experiment [8], the pest or weed control at 4000 g/ha stood at 70%. Moreover, the IC50 in experiment [5] (Table I) and in experiment [5] (Table II) was 89 nM throughout.

On to `O=P(O)(O)C(CN1CC=CCC1)P(=O)(O)O` [Compound 45], for which the pest or weed control at 1000 g/ha in experiment [1] (setting [9]) was determined as 100%; in experiment [2] it was 100%; in experiment [3] it was 100%; in experiment [4] (setting [9]) it was 90%; in experiment [6] (setting [9]), 100%; in experiment [7] (setting [9]) it was 50%. Moreover, the pest or weed control at 1000 g/ha in experiment [8] worked out at 100%. Moreover, the IC50 in experiment [5] (Table I) and in experiment [5] (Table II) was 26 nM in each case.

In the case of `CCCN(CC)CC(P(=O)(O)O)P(=O)(O)O` [Compound 38], the pest or weed control at 1000 g/ha in experiment [1] (setting [9]) is 100%; in experiment [2], 100%; in experiment [3] it was 100%; in experiment [4] (setting [9]), 70%; in experiment [6] (setting [9]), 100%; in experiment [7] (setting [9]), 10%. Further, the pest or weed control at 1000 g/ha in experiment [8] came to 90%. Also, the IC50 in experiment [5] (Table I) and in experiment [5] (Table II) was 124 nM in each case.

With `CC(NCC(P(=O)(O)O)P(=O)(O)O)c1ccc(F)cc1` (stereo not drawn) [Compound 44], the pest or weed control at 1000 g/ha in experiment [1] (setting [9]) turned out to be 100%; in experiment [2], 100%; in experiment [3] it was 90%; in experiment [4] (setting [9]), 60%; in experiment [6] (setting [9]) it was 90%; in experiment [7] (setting [9]), 60%. Besides, the pest or weed control at 1000 g/ha in experiment [8] was 10%. Moreover, the IC50 in experiment [5] (Table I) and in experiment [5] (Table II) was 2510 nM each time.

With `CCC1CCCCN1CC(P(=O)(O)O)P(=O)(O)O` (stereo not drawn) [Compound 53], the pest or weed control at 1000 g/ha in experiment [1] (setting [9]) worked out at 98%; in experiment [2], 100%; in experiment [3], 98%; in experiment [4] (setting [9]), 70%; in experiment [6] (setting [9]), 90%; in experiment [7] (setting [9]) it was 5%. The pest or weed control at 1000 g/ha in experiment [8] turned out to be 30%. Moreover, the IC50 in experiment [5] (Table I) and in experiment [5] (Table II) was 112 nM throughout.

`C=CCN(C)CC(P(=O)(O)O)P(=O)(O)O` [Compound 41]: the pest or weed control at 1000 g/ha in experiment [1] (setting [9]) is 95%; in experiment [2], 95%; in experiment [3], 100%; in experiment [4] (setting [9]), 85%; in experiment [6] (setting [9]) it was 100%; in experiment [7] (setting [9]), 60%. For the same compound, the pest or weed control at 1000 g/ha in experiment [8] stood at 85%. For the same compound, the IC50 in experiment [5] (Table I) and in experiment [5] (Table II) was 60 nM throughout.

`O=P(O)(O)C(CNCCc1ccccc1)P(=O)(O)O` [Compound 28]: the pest or weed control at 1000 g/ha is 30% in experiment [1] (setting [9]); 5% in experiment [2]; 60% in experiment [3]; 5% in experiment [4] (setting [9]); 50% in experiment [6] (setting [9]); 10% in experiment [7] (setting [9]). The pest or weed control at 1000 g/ha in experiment [8] was found to be 5%. Moreover, the IC50 in experiment [5] (Table I) and in experiment [5] (Table II) was 1410 nM throughout.

The values are drawn from patent publication US5756423A, “Method of controlling plants by inhibition of farnesyl pyrophosphate synthase” (Zeneca Limited, priority 1997, dated 1998).
